Measured values: patent publication US20240295560A1, “PANCREATIC CANCER DIAGNOSIS ASSISTANCE METHOD AND PHARMACEUTICAL COMPOUND FOR TREATING PANCREATIC CANCER” (TOKYO METROPOLITAN GERIATRIC HOSPITAL AND INSTITUTE OF …, priority 2020, published 2024)

Experiments:
[1] = test system: GM2 expression in MIA PaCa-2 cells; assay: GM2 expression and cell clusters in three-dimensional culture with AMP-dNM or MAP kinase inhibitor; format: cell-based
Protocol: MIA PaCa-2 cells were cultured on ultra-low attachment plates at a concentration of 1.0×10^4 cells/well (24-well plate: Corning) for 7 days. Cell clusters were obtained. Therefore, the number of GM2-positive cells increased in three-dimensional culture. In this example, the effects of AMP-dNM or MAP kinase inhibitor on GM2 expression were examined. Under the same conditions as in Example 5, MIA PaCa-2 cells were three-dimensionally cultured, and the expression of GM2 was measured by adding AMP-dNM (10 μM) which is an inhibitor of glycolipid synthesis, or PD0325901 (1 μM) which is a MAP kinase inhibitor.

[2] = test system: MIA PaCa-2 cells (GM2-positive vs GM2-negative); assay: sensitivity of GM2-expressing cells to anticancer drugs, proliferation rate by ATP assay; format: cell-based; settings: drug at 10 μM or 100 μM, incubated 3 days, ATP assay (FIG. 6)
Protocol: In this example, the sensitivity of GM2-expressing cells to anticancer drugs (gemcitabine, fluorouracil [5-FU], and Abraxane) were examined.
MIA PaCa-2 cells (3.0×10^3 cells/well) were seeded in 96-well plates. After 1 day, each anticancer drug was added thereto at a concentration of 10 μM or 100 μM. The cells were incubated for 3 days, and the proliferation rate of the cells was measured by ATP assay.

[3] = AMP-dNM 10 μM, three-dimensional culture of MIA PaCa-2 cells (FIG. 8(B))

## OC[C@@H]1[C@@H](O)[C@H](O)[C@@H](O)CN1CCCCCOCC12CC3CC(CC(C3)C1)C2 [AMP-dNM, N-(5′-adamantane-1′-yl-methoxy)-pentyl-1-deoxynojirimycin]
[1]; AMP-dNM 10 μM, three-dimensional culture of MIA PaCa-2 cells (FIG. 8(A))
  GM2 expression: decreased
[1]; [3]
  microvilli in the cell clusters: hardly observed
  vacuoles in the cell clusters: conspicuously observed

## O=C(NOC[C@H](O)CO)c1ccc(F)c(F)c1Nc1ccc(I)cc1F [PD0325901]
[1]; PD0325901 1 μM, three-dimensional culture of MIA PaCa-2 cells (FIG. 8(C))
  GM2 expression: decreased
[1]; PD0325901 1 μM, three-dimensional culture of MIA PaCa-2 cells (FIG. 8(D))
  size of cell clusters: clearly reduced

## Nc1ccn([C@@H]2O[C@H](CO)[C@@H](O)C2(F)F)c(=O)n1 [gemcitabine]
[2]
  proliferation rate of GM2-positive cells compared with GM2-negative cells: effective against GM2-positive cells

## O=c1[nH]cc(F)c(=O)[nH]1 [fluorouracil [5-FU], fluorouracil]
[2]
  proliferation rate of GM2-positive cells compared with GM2-negative cells: effective against GM2-positive cells
